Test results published in BindingDB's records for doi:10.1021/jm010566d (University Center For Pharmacy, 2002).

Assay: The binding affinity at 5-hydroxytryptamine 1D receptor was determined using [3H]5-CT

COc1cccc2c1N1CCN(C)C[C@@H]1c1ccccc1C2 [(+)-65-Methoxy-2-methyl-1,2,3,4,9,13b-hexahydro-2,4a-diaza-tribenzo[a,c,e]cycloheptene]
Ki: 1470 nM
